Measurements: paper PMC4717123, “The cytochrome P450 CYP6P4 is responsible for the high pyrethroid resistance in knockdown resistance-free Anopheles arabiensis” (Insect Biochemistry and Molecular Biology, 2016)
Read-outs that look alike come from different tables or passages of the source.

T1: CYP6P4 (Anopheles arabiensis, UniProt A0A0M4KNY0)
T1 sequence (A0A0M4KNY0 1-506): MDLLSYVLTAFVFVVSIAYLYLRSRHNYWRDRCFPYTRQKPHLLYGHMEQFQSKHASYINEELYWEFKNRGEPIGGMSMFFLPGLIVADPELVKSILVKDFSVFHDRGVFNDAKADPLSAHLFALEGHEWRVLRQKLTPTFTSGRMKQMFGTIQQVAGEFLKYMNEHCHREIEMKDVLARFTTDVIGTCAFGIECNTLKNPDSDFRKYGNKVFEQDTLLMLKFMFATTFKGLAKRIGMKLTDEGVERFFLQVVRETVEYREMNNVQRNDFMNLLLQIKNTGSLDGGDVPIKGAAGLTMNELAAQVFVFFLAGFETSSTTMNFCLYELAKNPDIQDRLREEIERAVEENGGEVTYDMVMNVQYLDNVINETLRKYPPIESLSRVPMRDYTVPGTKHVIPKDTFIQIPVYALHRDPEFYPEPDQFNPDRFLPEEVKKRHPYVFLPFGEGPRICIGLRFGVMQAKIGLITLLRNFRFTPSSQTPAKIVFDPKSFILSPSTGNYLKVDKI
T1 sequence (Q86QH5 1-679 partner): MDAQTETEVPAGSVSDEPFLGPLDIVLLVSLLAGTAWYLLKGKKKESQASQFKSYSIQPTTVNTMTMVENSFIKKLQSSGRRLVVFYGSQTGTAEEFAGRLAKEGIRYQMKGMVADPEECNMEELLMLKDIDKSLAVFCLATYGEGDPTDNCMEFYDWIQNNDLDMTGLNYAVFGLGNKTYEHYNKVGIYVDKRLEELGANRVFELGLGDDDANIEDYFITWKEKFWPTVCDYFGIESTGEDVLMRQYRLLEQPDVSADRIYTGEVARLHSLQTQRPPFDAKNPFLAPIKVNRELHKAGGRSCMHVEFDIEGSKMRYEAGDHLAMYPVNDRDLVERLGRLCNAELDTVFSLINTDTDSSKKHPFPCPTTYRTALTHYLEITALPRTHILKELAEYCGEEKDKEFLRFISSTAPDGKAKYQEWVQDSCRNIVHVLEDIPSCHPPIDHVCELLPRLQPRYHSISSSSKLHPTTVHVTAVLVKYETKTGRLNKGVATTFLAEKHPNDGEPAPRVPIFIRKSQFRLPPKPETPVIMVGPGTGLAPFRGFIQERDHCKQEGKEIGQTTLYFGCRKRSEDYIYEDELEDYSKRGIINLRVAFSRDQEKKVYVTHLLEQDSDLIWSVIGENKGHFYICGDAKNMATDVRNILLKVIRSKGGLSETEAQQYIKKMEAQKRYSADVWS

B1: recombinant CYP6P4 (Anopheles arabiensis) (protein)
chain: T1 sequence (A0A0M4KNY0 1-506)

How the values were obtained:
[1] = biological target: T1, CYP6P4; test: In vitro metabolism assays with insecticides (percentage depletion, HPLC); assay type: in vitro ADME; details: for metabolised at 1 h, 20 µM: Anopheles arabiensis, recombinant cyp6p4
Protocol: 0.2 M Tris–HCl and NADPH-regeneration components were added to the bottom of 1.5 ml tube chilled on ice. Membranes expressing recombinant CYP6P4 and AgCPR (and reconstituted with cytochrome b5) were added to the side of the tube and pre-incubated for 5 min at 30 °C, with shaking at 1200 rpm. […] Reactions were quenched with 0.1 ml ice-cold methanol and incubated for 5 more minutes to precipitate protein. Tubes were then centrifuged at 16,000 rpm and 4 °C for 15 min, and 150 μl of supernatant transferred into HPLC vials for analysis. All reactions were carried out in triplicate with experimental samples (+NADPH) and negative controls (-NADPH). […] For the other insecticides, mobile phases were 65:35 (bendiocarb) and 60:40 v/v (propoxur and malathion) acetonitrile to water, respectively with column temperature of 40 °C for bendiocarb and propoxur. Bendiocarb and propoxur were detected at 205 nm and 270 nm respectively, whilst malathion was detected at 230 nm. Enzyme activity was calculated as percentage depletion (the difference in the amount of insecticide(s) remaining in the +NADPH tubes compared with the –NADPH) and a t-test used for statistical analysis.

[2] = biological target: T1, CYP6P4; test: Inhibition assay of CYP6P4 metabolism of diethoxyfluorescein by insecticides; assay type: biochemical; details: 0.11 μM DEF substrate, 2 pmol CYP6P4, inhibitor 25-0.011 μM, 30 °C
Protocol: To assess differences in the degree of binding of the recombinant CYP6P4 to insecticides from different classes, inhibition assay was conducted with DEF and nine insecticides (inhibitors). […] 25 μl of pre-warmed regeneration buffer (7.8 mg glucose-6-phosphate, 0.25 mM MgCl2, 1.7 mg NADP, 6 U/ml glucose-6-phosphate dehydrogenase and 2% w/v NaHCO3) was incorporated into the wells. Fluorescence was monitored for 21 cycles at interval of 1 min with shaking at every step, at 30 °C. Results were analysed with GraphPad Prism software and inhibition at each inhibitor concentration and incubation time calculated as residual control activity towards DEF.

[3] = system: An. arabiensis populations from Ndjamena; parameters: method as in Witzig et al., 2013; details: Chad, 2009, ref Witzig et al., 2013; cited from earlier work
[4] = biological target: T1, CYP6P4; test: Fluorogenic probes assay (O-dealkylation, DEF kinetics); assay type: biochemical; details: 0-2 μM diethoxyfluorescein, 2 pmol enzyme, 10 min
Protocol: To find out whether there are differences in the degree of binding of recombinant CYP6P4 to different insecticides, membrane was also tested for O-dealkylation towards seven (7) fluorogenic probes: resorufin-based 7-ethoxyresurofin (7-ER), resurofin methyl ether (RME), resorufin-benzylether (RBE) and resorufin-pentylether (RPE); coumarin-based probes: 7-ethoxy-4-trifluoromethylcoumarin (7-EFC) and 7-methoxy-4-trifluoromethylcoumarin (MFC); and diethoxyfluorescein (DEF). […] Membranes were activated for 5 min at 37 °C in fluorescence spectrophotometer FLOUstar Omega (BMG LABTECH, Ortenberg, Germany) before 25 μl NADPH regeneration buffer (1 mM glucose-6-phosphate (G6P), 0.25 mM MgCl2, 0.1 mM NADP and 1 U/ml glucose-6-phosphate dehydrogenase (G6PDH) prepared in KPi (pH 7.4) was added. All reactions were conducted in three replicates with negative control (–NADPH) devoid of the regeneration buffer. Rate of fluorescent product formation for 7-ER, RBE and RME (ʎexc = 544 nm, ʎemi = 590 nm), 7-EFC and MFC (ʎexc = 410 nm, ʎemi = 535 nm) and DEF (ʎexc = 485 nm, ʎemi = 530 nm) was determined by linear regression of measurement between 2 and 10 min after start of the reaction.
For kinetics, 0–2 μM diethoxyfluorescein was assayed with 2 pmol of recombinant enzyme in a total volume of 250 μl. The protocol was as outlined above, with varying substrate concentration. […]

[5] = substrate: CC1(C)C(C=C(Cl)Cl)C1C(=O)OCc1cccc(Oc2ccccc2)c1; test: purified protein, by the assay type; assay type: biochemical, Anopheles arabiensis; details: other: permethrin 3-30 μM, 30 min, 22.5 pmol recombinant protein
Protocol: Reactions were performed in triplicates both for + NADPH (experimental tubes) and –NADPH (negative control tubes). Km and Vmax were established from the plot of substrate concentrations against the initial velocities and fitting of the data to the Michaelis–Menten module using the least squares non-linear regression, as implemented in the GraphPad Prism 6.03 Software (GraphPad Inc., La Jolla, CA, USA).

[6] = 20 μM insecticide, 1 h incubation, 30 °C, +NADPH vs -NADPH

| Molecule | metabolised at 1 h, 20 µM [1, 6] [%] | Percentage depletion [1, 6] | resistance/susceptibility status [3] | further results |
| --- | --- | --- | --- | --- |
| CC1(C)C(C=C(Cl)Cl)C1C(=O)OCc1cccc(Oc2ccccc2)c1 (centres unmarked) [permethrin] | 70.5 | – | – | IC50 ([2]; read-out: IC50): 970 nM |
| CCOC(=O)CC(SP(=S)(OC)OC)C(=O)OCC (centres unmarked) [malathion] | – | No activities | susceptible | IC50 [2]: high IC50 values |
| Cc1c(COC(=O)[C@@H]2[C@H](/C=C(\Cl)C(F)(F)F)C2(C)C)cccc1-c1ccccc1 (racemic) [bifenthrin] | – | 49.2% | – | – |
| Clc1ccc(C(c2ccc(Cl)cc2)C(Cl)(Cl)Cl)cc1 [DDT] | – | – | resistant | Percentage depletion ([1]; 20 μM DDT, 1 h, following addition of sodium cholate, p = 0.08, neither dicofol nor DDE detected): up to 20% |
| CCOc1ccc2c(c1)Oc1cc(OCC)ccc1C21OC(=O)c2ccccc21 [DEF, diethoxyfluorescein] | – | – | – | Kcat (maximal catalytic activity) [4]: 0.9775 s⁻¹; Km [4]: 0.11 µM |
| ClC1=C(Cl)[C@]2(Cl)[C@@H]3[C@@H]4C[C@@H]([C@H]5O[C@@H]45)[C@@H]3[C@@]1(Cl)C2(Cl)Cl [dieldrin] | – | – | susceptible | – |
| CCOc1ccc(C(C)(C)COCc2cccc(Oc3ccccc3)c2)cc1 [etofenprox] | 24.9 | – | – | – |
| CNC(=O)Oc1cccc2c1OC(C)(C)O2 [bendiocarb] | – | No activities | susceptible | IC50 [2]: high IC50 values |
| CNC(=O)Oc1ccccc1OC(C)C [propoxur] | – | No activities | – | – |
| CC1(C)[C@H](C(=O)O[C@H](C#N)c2cccc(Oc3ccccc3)c2)[C@@H]1C=C(Br)Br [deltamethrin] | < 2 | – | – | IC50 ([2]; read-out: IC50): 2520 nM; mortality rate [3]: 90% |
| CC1(C)[C@H](C(=O)O[C@H](C#N)c2cccc(Oc3ccccc3)c2)[C@@H]1/C=C(\Cl)C(F)(F)F (racemic) [λ-cyhalothrin] | 57.8 | – | – | – |
| B1 | – | – | – | Km [5]: 8.07 µM; kcat [5]: 0.054 s⁻¹; kcat/Km [5]: 0.4008 min^−1μM^−1 |
